# Results reported in patent US20030044776A1, “COMPOSITIONS AND METHODS FOR IDENTIFYING AGENTS THAT ALTER MITOCHONDRIAL PERMEABILITY TRANSITION PORES” (priority 1998, published 2003).
# What was measured:
# Format in all cases: cell-based, human
# [1] = system: SH-SY5Y cybrid cells (control and AD); assay: Mitochondrial permeability transition (MPT) assay using DASPMI fluorescence loss rate after ionomycin induction
# Method: The fluorescent mitochondria-selective dye 2-,4-dimethylaminostyryl-N-methylpyridinium (DASPMI, Molecular Probes, Inc., Eugene, Oreg.) is dissolved in Hank's balanced salt solution (HBSS; Life Technologies, Rockville, Md.) at 1 mM and diluted to 25 μM in warm HBSS. […]
# Fluorescence of each microculture in the 96-well plate is quantified immediately using a Molecular Devices fmax fluorimetric plate reader (Molecular Devices Corp., Sunnyvale, Calif.; excitation wavelength=485 nm; emission wavelength=590 nm) and zero-time (t0) fluorescence is recorded. […] Fluorescence decay of DASPMI-loaded, ionomycin induced cells is monitored as a function of time from 0-500 seconds following addition of ionomycin. The maximum negative slope (V-max) is calculated from a subset of the data using analysis software provided by the fluorimetric plate reader manufacturer. In addition, the initial and final signal intensities are determined and the effects of candidate agents that may affect MPT on the rate of signal decay are quantified.
# The method described in Example 1 was employed to monitor MPT induced by the calcium ionophore ionomycin and inhibition thereof by cyclosporin. […] Fluorescence detection and monitoring of fluorescence decay as a rate loss function were as described in Example 1. […]
# [2] = system: SH-SY5Y neuroblastoma cells; assay: Apoptosis morphology (membrane blebbing) by light microscopy after ionomycin induced MPT; conditions: four hours
# Method: Control SH-SY5Y cells, and control (normal) and AD cybrids produced from SH-SY5Y cells were as described above, and were induced to undergo MPT as described in Example 1. Some cultured cells were pretreated with 1-phenylbiguanide (I) as described in Example 8. Briefly, SH-SY5Y neuroblastoma cells (1×10^5 cells) were rinsed with one volume 1×PBS, and then treated with 10 μM ionomycin (Calbiochem, San Diego, Calif.) in DMEM supplemented with 10% fetal calf serum (FCS) (Gibco, Life Technologies, Grand Island, N.Y.) for 10 minutes, followed by two washes with DMEM (10% FCS). […]
# The results using parental SH-SY5Y cells are illustrated in FIG. 10.
# [3] = system: caspase-3 activity in AD cybrids or MixCon cybrids; assay: Caspase-3 activation (DEVD-AMC cleavage) following ionomycin induced MPT; conditions: FIG. 11
# Method: In 96-well microculture plates, cultured human cybrid neuroblastoma SH-SY5Y cells constructed using mitochondria from an individual known to have AD, or from a normal control subject, were cultured in HBSS followed by the addition of atractyloside (as described in Example 5) or ionomycin (as described in Example 1). Control cultures, to which neither atractyloside nor ionomycin were added, were prepared in parallel. Membrane potential was monitored from about 15 minutes (which was, in most cases, sufficient for purposes of the assay) to about 45 to 60 minutes, wherein “about” indicates ±10%.
# Caspase-3 activity was assessed by diluting the fluorogenic peptide substrate acetyl-Asp-Glu-Val-Asp (SEQ ID NO:2) conjugated to AMC (7-amino-4-methylcoumarin; the synthetic peptide is referred to as DEVD-AMC; CalBiochem-Novabiochem Corp., San Diego, Calif.; see Walker et al., 1994 Cell 78:343, and Thornberry et al., 1992 Nature 356:768) from a DMSO stock solution into culture media to a final concentration of 20 μM for uptake by cells. Substrate cleavage liberating the AMC fluorophore was measured continuously using a Cytofluor fluorimetric plate reader (model #2350, Millipore Corp., Bedford, Mass.; excitation wavelength=435 nm; emission wavelength=460 nm). Data are presented as ΔRFU (relative fluorescence units). […]
smiles,measurement,setting,value
N=C(N)NC(=N)Nc1ccccc1 [1-phenylbiguanide],rate of loss of mitochondrial membrane potential (DASPMI loss rate),"[1]; 2 mM 1-phenylbiguanide for 20 min prior to MPT induction with 1 μM ionomycin, two AD and one control cybrid cell lines, p<0.001, FIG. 9",decreased the rate of loss of mitochondrial membrane potential
same,"apoptosis morphology, % of cells","[2]; parental SH-SY5Y cells pretreated with (I), then 10 μM ionomycin, FIG. 10C",10-15%
same,induction of caspase-3 activity after ionomycin induced MPT,"[3]; pretreated with (I) as in Example 8 (2 mM, 20 min), MPT induced by 25 μM ionomycin",inhibited
C[C@H](CCC(=O)O)C[C@H](C)C[C@H](C)C(=O)/C=C(\O)[C@H](C)C[C@H](C)C/C=C/[C@@H](C)[C@@H](O)[C@@H](C)[C@@H](O)C[C@@H]1CC[C@@](C)([C@H]2CC[C@@](C)([C@@H](C)O)O2)O1 [ionomycin],cells exhibiting membrane blebbing,"[2]; parental SH-SY5Y cells, 10 μM ionomycin, untreated cells <5%, FIG. 10B",approximately 80%
same,caspase-3 activity induced by MPT induction,[3]; 25 μM ionomycin,induces significant caspase-3 activity
N.N.N.N.N.N.N.N.N.N.N.N.N.N.[Cl-].[Cl-].[Cl-].[Cl-].[Cl-].[Cl-].[O-2].[O-2].[Ru+3].[Ru+3].[Ru+4] [ruthenium red],DASPMI fluorescence loss rate,"[1]; 10 nM ruthenium red for 10 minutes prior to MPT induction with ionomycin (5 μM), control and AD cybrid cell lines, FIG. 3",significantly greater in cybrid cells that have not been treated with ruthenium red
